Laboratory results as given in US11649236B2, “Polycyclic carbamoylpyridone derivative” (Shionogi & Co., Ltd., priority 2018, dated 2023).

Key:
[1] = tested on: HIV; experiment: Anti-HIV activity (MT-4 cells, MTT); assay type: cell-based; conditions: Human immunodeficiency virus 1, MT4, 96 h, cultured 4 days
Description: Serial dilutions of a test sample were prepared in a 96-well microplate (50 μL/well). 2.5×10^5 cells/mL of a MT-4 cell suspension was dispensed at 100 μL/well to the plate containing the test sample. Then, an HIV virus solution was dispensed at 50 μL/well. The plate was mixed with a plate mixer and cultured for 4 days in a CO2 incubator. An MTT (3-(4,5-dimethylthiazol-2-yl)-2,5-diphenyltetrazolium bromide) solution was dispensed at 30 μL/well. The plate was reacted for 1 hour in a CO2 incubator. 150 μL of the supernatant was removed from each well so as not to take up the cells. 150 μL of a cell lysis solution was added to each well and well mixed with a plate mixer until the cells were completely lysed. The absorbance of the mixed plate was measured at two wavelengths of 560 nm and 690 nm with a microplate reader.

[2] = tested on: HIV mutant strain 1 (E138K/G140S/Q148H/N155H); experiment: Resistance evaluation test (HeLa-CD4 reporter), mutant strain 1; assay type: cell-based; conditions: FC=EC50 of mutant strain/EC50 of wild strain, HeLa-CD4 cells
Description: (§1) Serial dilutions of a test sample were prepared in a96-well microplate (50 μL/well). 2.5×10^5 cells/mL of a HeLa-CD4 cell suspension was dispensed at 100 μL/well to the plate containing the test sample. Then, an HIV virus solution (wild strain and mutant strain) was dispensed at 50 μL/well. The plate was mixed with a plate mixer and cultured for 3 days in a CO2 incubator. The culture supernatant in each well was removed by suction. A cell lysis buffer in a reporter assay kit was dispensed at 100 μL/well, and the plate was frozen in a freezer (−80° C.). The plate frozen in a freezer was thawed at room temperature, then mixed with a plate mixer, and centrifuged at 1,200 rpm for 5 minutes. The supernatant of each well was dispensed at 20 μL/well to a 96-well microplate (BLACK). A chemiluminescent reagent in the reporter assay kit was dispensed at 100 μL/well and reacted at room temperature for approximately 1 hour. Then, luminescence intensity was measured using MicroBeta TRILUX. […] FC=EC50 of mutant strain/EC50 of wild strain (Results) FC for the mutant strain 1 (E138K/G140S/Q148H/N155H) and FC for the mutant strain 2 (E92Q/E138T/G140S/Q148H) are shown in the table.

[3] = tested on: HIV mutant strain 2 (E92Q/E138T/G140S/Q148H); experiment: Resistance evaluation test (HeLa-CD4 reporter), mutant strain 2; assay type: cell-based; conditions: FC=EC50 of mutant strain/EC50 of wild strain, HeLa-CD4 cells
Description: as §1

[4] = Metabolic stability test; assay type: in vitro ADME, human; set-up: key: % remaining vs amount at 0 min (=100%); conditions: compound 0.5 μmol/L, human liver microsomes 0.5 mg protein/mL, NADPH, 37° C., 30 minutes; amount at 0 minutes defined as 100%
Description: Commercially available pooled human liver microsomes were reacted with the compound of the present invention for a certain time. A residual rate was calculated by the comparison between the reacted sample and an unreacted sample to evaluate the degree at which the compound of the present invention is metabolized in the liver. A reaction was performed (oxidative reaction) at 37° C. for 0 minutes or 30 minutes in the presence of 1 mmol/L NADPH in 0.2 mL of a buffer (50 mmol/L Tris-HCl pH 7.4, 150 mmol/L potassium chloride, 10 mmol/L magnesium chloride) containing 0.5 mg protein/mL of human liver microsomes. After the reaction, 50 μL of the reaction solution was added to 100 μL of a solution of methanol/acetonitrile=1/1 (v/v) and mixed, and the mixture was centrifuged at 3000 rpm for 15 minutes. The compound of the present invention in the centrifugation supernatant was quantified by LC/MS/MS or solid-phase extraction (SPE)/MS. The amount of the compound of the present invention remaining after the reaction was calculated with the amount of the compound at 0 minutes of the reaction defined as 100%.

Compound | EC50 [1] [nM] | FC mutant strain 1 [2] | FC mutant strain 2 [3] | residual rate [4]
CCN1C(=O)c2c(O)c(=O)c(C(=O)NCc3ccc(F)cc3F)cn2N2CCCC[C@@]12C [Compound I-006] | 0.76 | 24 | 16 | 92.5
CCN1C(=O)c2c(O)c(=O)c(C(=O)NCc3c(F)cc(F)cc3F)cn2N2CCCC[C@@H]12 [Compound I-011] | 2.2 | 13 | 10 | 88
CC(C)N1C(=O)c2c(O)c(=O)c(C(=O)NCc3c(F)cc(F)cc3F)cn2N2C[C@@H]3CC[C@@H](O3)[C@@H]12 [II-005] | 0.62 | 3.1 | 7.4 | 80.2
COC[C@@H]1CC[C@H]2N(C(C)C)C(=O)c3c(O)c(=O)c(C(=O)NCc4ccccc4F)cn3N12 [II-009] | 2.6 | 4.6 | 7.7 | 80.8
CC(C)N1C(=O)c2c(O)c(=O)c(C(=O)NCc3ccccc3F)cn2N2C[C@@H]3CC[C@@H](O3)[C@@H]12 [II-013] | 0.4 | 5.6 | 6.4 | 87
CCN1C(=O)c2c(O)c(=O)c(C(=O)NCc3c(F)cc(F)cc3F)cn2N2C[C@@H]3CC[C@@H](C3)[C@@H]12 [II-015] | 0.95 | 5.7 | 7.3 | 74.3
CCN1C(=O)c2c(O)c(=O)c(C(=O)NCc3ccc(F)cc3F)cn2N2C[C@@H]3CCC[C@@H](C3)[C@@H]12 [II-018] | 2.9 | 6.1 | 8.7 | 77.6
CCN1C(=O)c2c(O)c(=O)c(C(=O)NCc3c(F)cc(F)cc3F)cn2N2C[C@@H](C)CC[C@@H]12 [II-020] | 1.5 | 6.4 | 8.9 | 90.7
CC(C)N1C(=O)c2c(O)c(=O)c(C(=O)NCc3ccc(F)cc3F)cn2N2C[C@@H]3CC[C@@H](O3)[C@@H]12 [II-021] | 0.72 | 6.6 | 9 | 89.1
CN1C(=O)c2c(O)c(=O)c(C(=O)NCc3cccc(Cl)c3F)cn2N2CCCC[C@@H]12 [II-022] | 0.74 | 6.8 | 7.7 | 101
CCN1C(=O)c2c(O)c(=O)c(C(=O)NCc3ccc(F)cc3F)cn2N2CC[C@@H](C)C[C@@H]12 [II-023] | 0.46 | 7 | 4.2 | 82.9
C[C@H]1CC[C@H]2N(C)C(=O)c3c(O)c(=O)c(C(=O)NCc4cccc(Cl)c4F)cn3N2C1 [II-024] | 1.4 | 7.3 | 7 | 84.1
CC(C)N1C(=O)c2c(O)c(=O)c(C(=O)NCc3ccc(F)cc3F)cn2N2CCOC[C@@H]12 [II-026] | 0.18 | 8.1 | 14 | 87.5
CCN1C(=O)c2c(O)c(=O)c(C(=O)NCc3ccc(F)cc3F)cn2N2C[C@@H](COC)C[C@@H]12 [II-041] | 0.66 | 15 | 28 | 94.3
C[C@H]1C[C@H]2N(C)C(=O)c3c(O)c(=O)c(C(=O)NCc4cccc(Cl)c4F)cn3N2C1 [II-042] | 3.2 | 15 | 7.9 | 97.4
CCN1C(=O)c2c(O)c(=O)c(C(=O)NCc3c(F)cc(F)cc3F)cn2N2C[C@@H]3CC[C@@H](O3)[C@@H]12 [II-046] | 0.19 | 17 | 28 | 88.4
C[C@@H]1CCN2[C@@H](C1)N(C)C(=O)c1c(O)c(=O)c(C(=O)NCc3c(F)cc(F)cc3F)cn12 [II-130] | 0.13 | – | – | –
CCN1C(=O)c2c(O)c(=O)c(C(=O)NCc3ccc(F)cc3F)cn2N2[C@H](C)CC[C@@]12C [II-131] | 0.49 | – | – | –
CCN1C(=O)c2c(O)c(=O)c(C(=O)NCc3ccc(F)cc3F)cn2N2CC[C@@H](C(F)(F)F)C[C@@H]12 [II-132] | 0.51 | – | – | –
CCN1C(=O)c2c(O)c(=O)c(C(=O)NCc3cccc(Cl)c3)cn2N2CCCC[C@@H]12 [II-134] | 3 | – | – | –
CCN1C(=O)c2c(O)c(=O)c(C(=O)NCc3nn(C)cc3Cl)cn2N2CCCC[C@@H]12 [II-135] | 18 | – | – | –
CCN1C(=O)c2c(O)c(=O)c(C(=O)NCc3ccc(F)cc3F)cn2N2[C@@H]3COC[C@@H]3C[C@@H]12 [II-145] | 0.68 | – | – | –

Second part, led by results:

EC50 [1] [nM] | Compound | FC mutant strain 1 [2] | FC mutant strain 2 [3] | residual rate [4]
33 | CC[C@@H](NC(=O)c1cn2c(c(O)c1=O)C(=O)N(CC)[C@@H]1CCCCN12)c1ccc(F)cc1F [II-137] | – | – | –
2.1 | C[C@@H]1CC[C@H]2N(C)C(=O)c3c(O)c(=O)c(C(=O)NCc4ccc(Cl)cc4F)cn3N12 [II-138] | – | – | –
0.62 | CN1C(=O)c2c(O)c(=O)c(C(=O)NCc3c(F)cc(F)cc3F)cn2N2CC3(CC3)C[C@@H]12 [II-139] | – | – | –
3.6 | CCN1C(=O)c2c(O)c(=O)c(C(=O)NCc3ccc(Cl)cc3)cn2N2CCCC[C@@H]12 [II-140] | – | – | –
0.65 | CCN1C(=O)c2c(O)c(=O)c(C(=O)NCc3ncc(F)cc3F)cn2N2CCCC[C@@H]12 [II-141] | – | – | –
0.74 | CCN1C(=O)c2c(O)c(=O)c(C(=O)NCc3cc(F)cc(F)c3F)cn2N2CCCC[C@@H]12 [II-142] | – | – | –
3.2 | CCN1C(=O)c2c(O)c(=O)c(C(=O)NCc3ccc(F)cc3F)cn2N2CCN(c3ccccc3)C[C@@H]12 [II-143] | – | – | –
1.6 | CCN1C(=O)c2c(O)c(=O)c(C(=O)NCc3ccc(F)cc3F)cn2N2CCN(c3ncccn3)C[C@@H]12 [II-146] | – | – | –
0.66 | O=C(NCc1ccc(F)cc1F)c1cn2c(c(O)c1=O)C(=O)N1CCCC[C@]13CCCCN23 [II-147] | – | – | –
0.5 | CCN1C(=O)c2c(O)c(=O)c(C(=O)NCc3c(F)cccc3Cl)cn2N2CCCC[C@@H]12 [II-148] | – | – | –
1.2 | CCN1C(=O)c2c(O)c(=O)c(C(=O)NCc3ccc(F)cc3F)cn2N2C[C@@]3(CCOC3)C[C@@H]12 [II-149] | – | – | –
0.55 | CCN1C(=O)c2c(O)c(=O)c(C(=O)NCc3ccc(F)cc3F)cn2N2[C@H](COC)CCC[C@@H]12 [II-150] | – | – | –
1.6 | CN1C(=O)c2c(O)c(=O)c(C(=O)NCc3cccc(Cl)c3F)cn2N2CC[C@H](C(F)(F)F)C[C@@H]12 [II-151] | – | – | –
0.7 | CN1C(=O)c2c(O)c(=O)c(C(=O)NCc3cccc(Cl)c3F)cn2N2C[C@@H]3CCC[C@@H](O3)[C@@H]12 [II-152] | – | – | –
0.67 | CCN1C(=O)c2c(O)c(=O)c(C(=O)NCc3ccc(F)cc3F)cn2N2Cc3ccc(F)cc3[C@@]12C [II-154] | – | – | –
1.2 | CCN1C(=O)c2c(O)c(=O)c(C(=O)NCc3ccc(F)cc3F)cn2N2[C@H](C)c3cc(F)ccc3[C@@H]12 [II-155] | – | – | –
0.27 | CN1C(=O)c2c(O)c(=O)c(C(=O)NCc3c(F)cc(F)cc3F)cn2N2C[C@H]3C[C@H](C3)[C@@H]12 [II-158] | – | – | –
0.56 | CCN1C(=O)c2c(O)c(=O)c(C(=O)NCc3ccc(F)cc3F)cn2N2CCCC[C@@]12CC [II-159] | – | – | –
